Common to all, as to assay type: functional, cell-based
What all share (details): Oocyte

Data set [1] deals with T1, Solute carrier family 15 member 1 (Rattus norvegicus) (UniProt P51574).
T1 sequence (whole entry): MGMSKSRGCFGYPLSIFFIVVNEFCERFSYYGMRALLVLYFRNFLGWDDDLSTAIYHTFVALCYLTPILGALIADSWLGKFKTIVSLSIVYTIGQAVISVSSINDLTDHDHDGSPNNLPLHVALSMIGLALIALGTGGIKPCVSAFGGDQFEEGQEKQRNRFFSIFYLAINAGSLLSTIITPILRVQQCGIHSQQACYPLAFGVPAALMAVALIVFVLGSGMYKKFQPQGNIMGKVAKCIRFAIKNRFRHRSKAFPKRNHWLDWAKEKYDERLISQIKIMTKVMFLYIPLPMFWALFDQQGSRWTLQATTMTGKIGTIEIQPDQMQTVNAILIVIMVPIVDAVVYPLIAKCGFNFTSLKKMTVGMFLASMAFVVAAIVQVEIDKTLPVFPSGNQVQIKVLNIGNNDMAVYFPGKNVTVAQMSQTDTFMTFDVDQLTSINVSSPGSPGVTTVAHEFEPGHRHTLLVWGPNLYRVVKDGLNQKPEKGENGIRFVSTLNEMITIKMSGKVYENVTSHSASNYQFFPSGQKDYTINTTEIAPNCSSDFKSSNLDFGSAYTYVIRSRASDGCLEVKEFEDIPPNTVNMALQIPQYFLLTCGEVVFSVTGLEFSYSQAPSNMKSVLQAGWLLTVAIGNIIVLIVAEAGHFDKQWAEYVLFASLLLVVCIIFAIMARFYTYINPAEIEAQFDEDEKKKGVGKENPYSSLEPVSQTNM
Nature of the data set: TP_TRANSPORTER: inhibition of Cephradine uptake (Cephradine: 3000 uM, Ceftibuten: 10000 uM) in Xenopus laevis oocytes.

Data set [2] deals with T1, Solute carrier family 15 member 1 (Rattus norvegicus). Put plainly: TP_TRANSPORTER: inhibition of Cephradine uptake (Cephradine: 3000 uM, Carnosine: 10000 uM) in Xenopus laevis oocytes.
For data set [3] the target is unchanged. Put plainly: TP_TRANSPORTER: inhibition of Ceftibuten uptake (Ceftibuten: 1000 uM, Carnosine: 10000 uM) in Xenopus laevis oocytes.
The target is the same in data set [4]. Nature of the data set: TP_TRANSPORTER: inhibition of Cephradine uptake (Cephradine: 3000 uM, Bestatin: 10000 uM) in Xenopus laevis oocytes.
The target is the same in data set [5]. Put plainly: TP_TRANSPORTER: inhibition of Ceftibuten uptake (Ceftibuten: 1000 uM, Bestatin: 10000 uM) in Xenopus laevis oocytes.
Data set [6] shares this target. Nature of the data set: TP_TRANSPORTER: inhibition of Ceftibuten uptake (Ceftibuten: 1000 uM, Gly-Leu: 10000 uM) in Xenopus laevis oocytes.
Data set [7] has the same target. Put plainly: TP_TRANSPORTER: inhibition of Cephradine uptake (Cephradine: 3000 uM, Gly-Leu: 10000 uM) in Xenopus laevis oocytes.
For data set [8] the target is unchanged. Nature of the data set: TP_TRANSPORTER: inhibition of Ceftibuten uptake (Ceftibuten: 1000 uM, Cephradine: 10000 uM) in Xenopus laevis oocytes.
Substrate in data set [9]: Nc1nc(/C(=C/CC(=O)O)C(=O)N[C@@H]2C(=O)N3C(C(=O)O)=CCS[C@H]23)cs1
Nature of the data set: (§1) TP_TRANSPORTER: uptake in Xenopus laevis oocytes.

Substrate in data set [10]: CC1=C(C(=O)O)N2C(=O)[C@@H](NC(=O)[C@H](N)C3=CCC=CC3)[C@H]2SC1
The data set is described as §1.

In general, Km refers to the concentration of substrate that gives half-maximal velocity.

Take `Nc1nc(/C(=C/CC(=O)O)C(=O)N[C@@H]2C(=O)N3C(C(=O)O)=CCS[C@H]23)cs1`: the Activity result in data set [1] is “inhibitor [+]”.
In the case of `NCCC(=O)N[C@@H](Cc1c[nH]cn1)C(=O)O`, the Activity result in data set [2] and in data set [3] was “inhibitor [+]” each time.
As for `CC(C)C[C@H](NC(=O)[C@@H](O)[C@H](N)Cc1ccccc1)C(=O)O`, the Activity entry in data set [4] and in data set [5] was “inhibitor [+]” in each case.
Take `CC(C)C[C@H](NC(=O)CN)C(=O)O`: the Activity result in [6] and in [7] was “inhibitor [+]” throughout.
In the case of `CC1=C(C(=O)O)N2C(=O)[C@@H](NC(=O)[C@H](N)C3=CCC=CC3)[C@H]2SC1`, the Activity result in [8] is “is not an inhibitor [-]”.

B1: Solute carrier family 15 member 1 (Rattus norvegicus), P51574 (protein)
chain: T1 sequence (whole entry)
Regarding B1, the Km in [9] amounted to 0.9 mM; in [10], 12.4 mM.

The values above are taken from ChEMBL document CHEMBL2074101, “Cloning and characterization of a rat H+/peptide cotransporter mediating absorption of beta-lactam antibiotics in the intestine and kidney” (J Pharmacol Exp Ther, 1995).
